What follows are compounds tested on anesthetized rats (assay: Effect on increase in intravesical pressure induced by pelvic nerve electrical stimulation in anesthetized rats). Settings: Rattus norvegicus, 1 h, anesthetized SD female rats, test compound 0.3 mg/kg intravenous, single dose, read-out: Ratio of Change Rc of AUC of increase in intravesical pressure (maximum during 1 hour after administration).
Assay type: in vivo, rat
Procedure: As the action of nerve stimulation-dependent bladder contraction in vivo, the action of the test compound on increase in intravesical pressure induced by pelvic nerve electrical stimulation using rats was measured by the following method.
SD female rats (Japan SLC, Inc.) were anesthetized by subcutaneously administering 1200 mg/kg of urethane (manufactured by Fujifilm Wako Pure Chemical Industries, Ltd.), and then the lower abdomen of each rat was incised at the midline. After the ureters on both sides were ligated and cut, a cannula for measuring intravesical pressure (PE-60, manufactured by BECTON DICKINSON) was inserted into the bladder through the external urethral orifice and fixed with sutures. After about 200 μL of saline was injected via the cannula inserted into the bladder, the other end of the cannula was connected to a pressure transducer to measure intravesical pressure.
The pelvic nerve near the bladder of the rat was separated under stereomicroscope observation and an electrode for nerve stimulation (K2-14015M-PT, manufactured by BrainScience idea. Co., Ltd.) was attached. The peritoneal cavity of the rat was filled with liquid paraffin (26114-75, NACALAI TESQUE, INC.). After the postoperative rest period, the pelvic nerve was electrically stimulated to cause an increase in intravesical pressure, using an electrical stimulator (SEN-7203, manufactured by NIHON KOHDEN CORPORATION). At this time, the stimulation frequency was set to 8 Hz, the pulse width was set to 0.3 ms, and the stimulation time was set to 10 seconds. The voltage of the electrical stimulator was adjusted such that the increase in intravesical pressure was about 50% to 70% of that at stimulation with 10 V.
Then, the electric stimulation was repeated at an interval of 10 minutes. After the increase in intravesical pressure induced by electric stimulation was stabilized three times or more, a test compound (dosage 0.3 mg/kg), distigmine bromide (dosage 0.03, 0.1 mg/kg), or a vehicle was intravenously administered at a single dosage of 1.0 mL/kg via a catheter placed into a femoral vein, and the effect of the test compound on increase in intravesical pressure was measured for 1 hour. Saline was used as a vehicle, and the test compound was dissolved in dimethylsulfoxide and then added to the vehicle. At this time, the final concentration of dimethylsulfoxide was set to 10%.
The response data (intravesical pressure) were imported to a personal computer via a data collection and analysis system (PowerLab (registered trademark), manufactured by ADInstruments) and analyzed using analysis software (LabChart (registered trademark), manufactured by ADInstruments). For each electric stimulation, AUC of the increase in intravesical pressure (area under the curve of plot of intravesical pressure) was calculated, and a ratio of change Rc (unit: %) with respect to the value (AUC) before administering the test compound was calculated according to the following equation (2). In the equation (2), Ab denotes AUC before administering the test compound, and Aa denotes AUC after administering the test compound. In addition, the maximum effect observed during 1 hour after administering the test compound (maximum ratio of change Rc) was defined as the effect of the test compound. The higher the ratio of change Rc, the higher the effect of enhancing bladder contraction force and the higher the effect of increasing intravesical pressure. Rc=100×(Aa−Ab)/Ab (2)

| SMILES | change in vivo at 0.3 mg/kg [%] |
| --- | --- |
| CCOc1cc(-c2cc(N(C)CC3(COC)CCCC3)c3[nH]c(NC(=O)c4cc5c(cn4)CN(CCC(=O)O)CC5)nc3n2)cc(C(F)(F)F)n1 [Example 9] | 44 |
| CCOc1ncc(-c2cc(N(C)CC3(COC)CCCC3)c3[nH]c(NC(=O)c4ccc(CCCC(=O)O)cn4)nc3n2)cc1C(F)(F)F [Example 12, 4-[6-({5-[6-Ethoxy-5-(trifluoromethyl)pyridin-3-yl]-7-({[1-(methoxymethyl)cyclopentyl]methyl}(methyl)amino)-1H-imidazo[4,5-b]pyridin-2-yl}carbamoyl)pyridin-3-yl]butanoic acid] | 53.4 |
| COCC1(CN(C)c2cc(-c3cnc(C4CC4)c(C(F)(F)F)c3)nc3nc(NC(=O)c4ccc(CCC(=O)O)cn4)[nH]c23)CCCC1 [Example 1, 3-[6-({5-[6-Cyclopropyl-5-(trifluoromethyl)pyridin-3-yl]-7-({[1-(methoxymethyl)cyclopentyl]methyl}(methyl)amino)-1H-imidazo[4,5-b]pyridin-2-yl}carbamoyl)pyridin-3-yl]propanoic acid] | 55.3 |
| CCOc1ncc(-c2cc(N(C)CC3(COC)CCCCC3)c3[nH]c(NC(=O)c4ccc(CCC(=O)O)cn4)nc3n2)cc1C(F)(F)F [Example 13] | 113 |
| COCC1(CN(C)c2cc(-c3cnc(C4CC4)c(C(F)(F)F)c3)nc3nc(NC(=O)c4ccc(CC(C)C(=O)O)cn4)[nH]c23)CCCC1 (stereo not drawn) [Example 4, 3-[6-({5-[6-Cyclopropyl-5-(trifluoromethyl)pyridin-3-yl]-7-({[1-(methoxymethyl)cyclopentyl]methyl}(methyl)amino)-1H-imidazo[4,5-b]pyridin-2-yl}carbamoyl)pyridin-3-yl]-2-methylpropanoic acid] | 89.5 |
| CCOc1cc(-c2cc(N(C)CC3(COC)CCCC3)c3[nH]c(NC(=O)c4ccc(CCC(=O)O)cn4)nc3n2)cc(C(F)(F)F)n1 [Example 2, 3-[6-({5-[2-Ethoxy-6-(trifluoromethyl)pyridin-4-yl]-7-({[1-(methoxymethyl)cyclopentyl]methyl}(methyl)amino)-1H-imidazo[4,5-b]pyridin-2-yl}carbamoyl)pyridin-3-yl]propanoic acid] | 36.5 |
| COCC1(CN(C)c2cc(-c3cnc(C4CC4)c(C(F)(F)F)c3)nc3nc(NC(=O)c4ccc(CN(C)CC(=O)O)cn4)[nH]c23)CCCC1 [Example 6] | 55.1 |
| COCC1(CN(C)c2cc(-c3cnc(C4CC4)c(C(F)(F)F)c3)nc3nc(NC(=O)c4cn5c(n4)CCC(C(=O)O)C5)[nH]c23)CCCC1 (stereo not drawn) [Example 5, 2-({5-[6-Cyclopropyl-5-(trifluoromethyl)pyridin-3-yl]-7-({[1-(methoxymethyl)cyclopentyl]methyl}(methyl)amino)-1H-imidazo[4,5-b]pyridin-2-yl}carbamoyl)-5,6,7,8-tetrahydroimidazo[1,2-a]pyridine-6-carboxylic acid] | 49.1 |
| COCC1(CN(C)c2cc(-c3cnc(C4CC4)c(C(F)(F)F)c3)nc3nc(NC(=O)c4ccc(CCCC(=O)O)cn4)[nH]c23)CCCC1 [Example 8, 4-[6-({5-[6-Cyclopropyl-5-(trifluoromethyl)pyridin-3-yl]-7-({[1-(methoxymethyl)cyclopentyl]methyl}(methyl)amino)-1H-imidazo[4,5-b]pyridin-2-yl}carbamoyl)pyridin-3-yl]butanoic acid] | 85.7 |
| COCC1(CN(C)c2cc(-c3cc(C4CC4)nc(C(F)(F)F)c3)nc3nc(NC(=O)c4cc5c(cn4)CN(CCC(=O)O)CC5)[nH]c23)CCCC1 [Example 10, 3-[6-({5-[2-Cyclopropyl-6-(trifluoromethyl)pyridin-4-yl]-7-({[1-(methoxymethyl)cyclopentyl]methyl}(methyl)amino)-1H-imidazo[4,5-b]pyridin-2-yl}carbamoyl)-1,2,3,4-tetrahydro-2,7-naphthyridin-2-yl]propanoic acid] | 33.7 |
| COCC1(CN(C)c2cc(-c3cnc(C4CC4)c(C(F)(F)F)c3)nc3nc(NC(=O)c4ccc(CCCC(=O)O)cn4)[nH]c23)CCCCC1 [Example 11, 4-[6-({5-[6-Cyclopropyl-5-(trifluoromethyl)pyridin-3-yl]-7-({[1-(methoxymethyl)cyclohexyl]methyl}(methyl)amino)-1H-imidazo[4,5-b]pyridin-2-yl}carbamoyl)pyridin-3-yl]butanoic acid] | 80.7 |
| CCOc1ncc(-c2cc(N(C)CC3(COC)CCCCC3)c3[nH]c(NC(=O)c4ccc(CCCC(=O)O)cn4)nc3n2)cc1C(F)(F)F [Example 14, 4-[6-({5-[6-Ethoxy-5-(trifluoromethyl)pyridin-3-yl]-7-({[1-(methoxymethyl)cyclohexyl]methyl}(methyl)amino)-1H-imidazo[4,5-b]pyridin-2-yl}carbamoyl)pyridin-3-yl]butanoic acid] | 70.4 |
| COCC1(CN(C)c2cc(-c3cc(C4CC4)nc(C(F)(F)F)c3)nc3nc(NC(=O)c4ccc(CCC(=O)O)cn4)[nH]c23)CCCC1 [Example 3, 3-[6-({5-[2-Cyclopropyl-6-(trifluoromethyl)pyridin-4-yl]-7-({[1-(methoxymethyl)cyclopentyl]methyl}(methyl)amino)-1H-imidazo[4,5-b]pyridin-2-yl}carbamoyl)pyridin-3-yl]propanoic acid] | 28.5 |
| COCC1(CN(C)c2cc(-c3cnc(C4CC4)c(C(F)(F)F)c3)nc3nc(NC(=O)c4cn(CCCC(=O)O)cn4)[nH]c23)CCCC1 [Example 7, 4-[4-({5-[6-Cyclopropyl-5-(trifluoromethyl)pyridin-3-yl]-7-({[1-(methoxymethyl)cyclopentyl]methyl}(methyl)amino)-1H-imidazo[4,5-b]pyridin-2-yl}carbamoyl)-1H-imidazol-1-yl]butanoic acid] | 41.8 |

Same assay, conditions: anesthetized SD female rats, intravenous, test compound 0.3 mg/kg, distigmine bromide 0.03, 0.1 mg/kg

| SMILES | effect of enhancing bladder contraction force |
| --- | --- |
| CN(CCCCCCN(C)C(=O)Oc1ccc[n+](C)c1)C(=O)Oc1ccc[n+](C)c1 [distigmine bromide, reference compound] | exhibited an effect of enhancing bladder contraction force |

Same assay, conditions: anesthetized SD female rats, test compound 0.3 mg/kg intravenous, single dose

| SMILES | Ratio of Change Rc of AUC of increase in intravesical pressure (maximum during 1 hour after administration) [%] |
| --- | --- |
| COCC1(CN(C)c2cc(-c3cnc(C4CC4)c(C(F)(F)F)c3)nc3nc(NC(=O)c4cn(C[C@@H](C)C(=O)O)cn4)[nH]c23)CCCC1 [Compound 53] | 50.2 |
| COCC1(CN(C)c2cc(-c3cnc(C4CC4)c(C(F)(F)F)c3)nc3nc(NC(=O)c4ccc(C5CC5C(=O)O)cn4)[nH]c23)CCCC1 (stereo not drawn) [Compound 49] | 43.6 |

What follows are compounds tested on anesthetized rats in the same assay as above. Settings: intravenous, 0.1 mg/kg.
Assay type: in vivo, rat

| SMILES | nicotinic side effect (fasciculation) |
| --- | --- |
| CN(CCCCCCN(C)C(=O)Oc1ccc[n+](C)c1)C(=O)Oc1ccc[n+](C)c1 [distigmine bromide, reference compound] | a nicotinic side effect (fasciculation) was observed |
